Values joined by “and” are separate entries in the source; they are usually repeats but may differ in a detail not shown here. Equal values may be shown once.

The target in the first assay is T1, Met kinase domain (GST fusion protein) (Homo sapiens, UniProt P08581).
T1 construct: Purified GST fusion protein containing the Met kinase domain
T1 sequence (P08581 1078-1345 limits assumed): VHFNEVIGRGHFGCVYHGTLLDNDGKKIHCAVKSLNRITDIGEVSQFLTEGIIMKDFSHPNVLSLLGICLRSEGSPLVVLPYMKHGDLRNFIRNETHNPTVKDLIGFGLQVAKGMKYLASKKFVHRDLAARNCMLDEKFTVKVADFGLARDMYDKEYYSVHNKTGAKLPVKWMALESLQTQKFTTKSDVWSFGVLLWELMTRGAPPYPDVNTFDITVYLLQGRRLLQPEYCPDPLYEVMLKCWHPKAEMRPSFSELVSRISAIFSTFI
Nature of the assay: Met transphosphorylation assay (ELISA, poly(glu-tyr) substrate).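 Also: Cell-free ELISA with plate-bound poly(Glu:Tyr 4:1) phosphorylated by GST-fused Met kinase domain plus ATP and Mn2+, phosphotyrosine detected by anti-phosphotyrosine antibody with HRP and ABTS read-out.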 The following applies: Table 2; read-out: Met IC50. The class given is biochemical. (An ELISA detects its analyte on a solid surface through an enzyme-linked reagent.)
As a reminder, the IC50 is the concentration needed to halve the response being measured. On to `CC(Oc1cc(-c2ccc(C(=O)N3CC[C@@H](N)C3)cc2)cnc1N)c1c(Cl)ccc(F)c1Cl` (stereo partly drawn) [Example I-304, (4-{6-Amino-5-[1-(2,6-dichloro-3-fluoro-phenyl)-ethoxy]-pyridin-3-yl}-phenyl)-((R)-3-amino-pyrrolidin-1-yl)-methanone], for which the IC50 came out at 0.072 µM. Same read-out and setting: with `Nc1ncc(-c2ccc(C(=O)NCCN3CCOCC3)cc2)cc1OCc1c(F)ccc(F)c1Cl` [Example I-223] the figure was 0.165 µM; with `CC(Oc1cc(-c2ccc(NS(=O)(=O)CCN3CC[C@@H](O)C3)cc2)cnc1N)c1c(Cl)ccc(F)c1Cl` (stereo partly shown) [Example I-299], 0.062 µM. The same measure, in the same setting: in the case of `CN1CCC(NC(=O)c2ccc(-c3cnc(N)c(OCc4c(F)ccc(F)c4Cl)c3)cc2)CC1` [Example I-220, 4-[6-Amino-5-(2-chloro-3,6-difluoro-benzyloxy)-pyridin-3-yl]-N-(1-methyl-piperidin-4-yl)-benzamide] it was 0.11 µM. On the same count and under the same terms, with `Nc1ncc(-c2ccc(C(=O)NCCN3CCOCC3)cc2)cc1OCc1ccccc1C(F)(F)F` [Example I-191, 4-[6-Amino-5-(2-trifluoromethyl-benzyloxy)-pyridin-3-yl]-N-(2-morpholin-4-yl-ethyl)-benzamide] the figure was 5.2 µM; with `Nc1ncc(-c2cccc(NS(=O)(=O)CCN3CCN(C(=O)CO)CC3)c2)cc1OCc1c(F)ccc(F)c1Cl` [Example I-263, 2-[4-(2-Hydroxy-acetyl)-piperazin-1-yl]-ethanesulfonic acid {3-[6-amino-5-(2-chloro-3,6-difluoro-benzyloxy)-pyridin-3-yl]-phenyl}-amide], 1.14 µM. Consider `Nc1ncc(-c2ccc(NS(=O)(=O)CCNC3CC3)cc2)cc1OCc1c(F)ccc(F)c1Cl` [Example I-244, 2-Cydopropylamino-ethanesulfonic acid {4-[6-amino-5-(2-chloro-3,6-difluoro-benzyloxy)-pyridin-3-yl]-phenyl}-amide], for which the IC50 was 0.081 µM.

With `Nc1ncc(-c2cccc(C(=O)N3CC[C@H](N)C3)c2)cc1OCc1c(F)ccc(F)c1Cl` [Example I-233, {3-[6-Amino-5-(2-chloro-3,6-difluoro-benzyloxy)-pyridin-3-yl]-phenyl}-[(3S)-amino-pyrrolidin-1-yl]-methyanone], the IC50 is 0.12 µM.

In the case of `CC(Oc1cc(-c2ccc(NS(=O)(=O)CCNCC3CC3)cc2)cnc1N)c1c(Cl)ccc(F)c1Cl` (stereo not shown) [Example I-326, 2-(Cyclopropylmethyl-amino)-ethanesulfonic acid (4-{6-amino-5-[1-(2,6-dichloro-3-fluoro-phenyl)-ethoxy]-pyridin-3-yl}-phenyl)-amide], the IC50 came to 0.075 µM. For `CCN(CC)CCS(=O)(=O)Nc1ccc(-c2cnc(N)c(OC(C)c3c(Cl)ccc(F)c3Cl)c2)cc1` (stereo not shown) [Example I-323, 2-Diethylamino-ethanesulfonic acid (4-{6-amino-5-[1-(2,6-dichloro-3-fluoro-phenyl)-ethoxy]-pyridin-3-yl}-phenyl)-amide], the IC50 is 0.08 µM.

Staying with this assay, now noted: plain numbers in column Met IC50 (μM) of Table 2; read-out: Met IC50.
With `CC(Oc1cc(-c2ccc(C(=O)N3CC[C@H](N)C3)cc2)cnc1N)c1c(Cl)cccc1Cl` (stereo partly drawn) [Example I-407, (4-{6-Amino-5-[1-(2,6-dichloro-phenyl)-ethoxy]-pyridin-3-yl}-phenyl)-((S)-3-aminopyrrolidin-1-yl)-methanone], the IC50 stood at 0.05 µM. Still for that read-out and setting: with `CC(Oc1cc(-c2ccc(C(=O)N3CCN(C)CC3)cc2)cnc1N)c1c(Cl)ccc(F)c1Cl` (stereo not shown) [Example I-541, (4-{6-Amino-5-[1-(2,6-dichloro-3-fluoro-phenyl)-ethoxy]-pyridin-3-yl}-phenyl)-(4-methyl-piperazin-1-yl)-methanone] the figure was 0.079 µM; with `CC(Oc1cc(C#CCNC(=O)CN2CCCCC2)cnc1N)c1c(Cl)ccc(F)c1Cl` (stereo not shown) [Example I-424, N-(3-{6-Amino-5-[1-(2,6-dichloro-3-fluoro-phenyl)-ethoxy]-pyridin-3-yl}-prop-2-ynyl)-2-piperidin-1- -yl-acetamide], 0.016 µM.

Staying with this assay, now noted: read-out: Met IC50.
On to `CC(Oc1nc(-c2ccc(C(=O)N3CC[C@@H](N)C3)cc2)cnc1N)c1c(F)ccc(F)c1Cl` (stereo partly drawn) [II-115, (4-{5-Amino-6-[1-(2-chloro-3,6-difluoro-phenyl)-ethoxy]-pyrazin-2-yl}-phenyl)-((R)-3-amino-pyrrolidin-1-yl)-methanone], for which the IC50 is 0.078 µM. For `CC(Oc1nc(-c2cccc(C(=O)NCCCN3CCCC3)c2)cnc1N)c1c(Cl)cccc1Cl` (stereo not shown) [II-178, 3-{5-Amino-6-[1-(2,6-dichloro-phenyl)-ethoxy]-pyrazin-2-yl}-N-(3-pyrrolidin-1-yl-propyl)-benzamide], the IC50 came to 0.34 µM. Take `CC(C)C(Oc1nc(-c2ccc(OCCN3CCOCC3)cc2)cnc1N)c1c(F)ccc(F)c1Cl` (stereo not shown) [II-69, 3-[1-(2-Chloro-3,6-difluoro-phenyl)-2-methyl-propoxy]-5-[4-(2-morpholin-4-yl-ethoxy)-phenyl]-pyrazin-2-ylamine]: the half-inhibitory concentration (IC50) was 10.6 µM. Same read-out and setting: in the case of `Nc1ncc(-c2ccc(C(=O)NCCCN3CCCC3)cc2)nc1OCc1c(F)ccc(F)c1Cl` [II-38, 4-[5-Amino-6-(2-chloro-3,6-difluoro-benzyloxy)-pyrazin-2-yl]-N-(3-pyrrolidin-1-yl-propyl)-benzamide] it was 0.58 µM; in that of `Nc1ncc(-c2ccc3[nH]c(C(=O)NCCN4CCOCC4)cc3c2)cc1OCc1c(Cl)cccc1Cl` [Example I-82, 5-[6-Amino-5-(2,6-dichloro-benzyloxy)-pyridin-3-yl]-1H-indole-2-carboxylic acid (2-morpholin-4-yl-ethyl)-amide], 1.8 µM. Same read-out and setting: with `Nc1ncc(-c2ccc(OCC(=O)N3CCC[C@H]3CN3CCCC3)cc2)cc1OCc1c(F)cccc1F` [Example I-127, 2-{4-[6-Amino-5-(2,6-difluoro-benzyloxy)-pyridin-3-yl]-phenoxy}-1-[(2S)-2-pyrrolidin-1-ylmethyl-pyrrolidin-1-yl]-ethanone] the figure was 5.43 µM; with `CC(C)c1ccc(NC(=O)C(Oc2cc(-c3ccc(OCCN4CCOCC4)cc3)cnc2N)c2ccccc2)cc1` (stereo not shown) [Example I-109, 2-{2-Amino-5-[4-(2-morpholin-4-yl-ethoxy)-phenyl]-pyridin-3-yloxy}-N-(4-isopropyl-phenyl)-2-phenyl-acetamide], above 20 µM; with `Nc1ncc(-c2ccc(C(=O)N3CCC[C@H]3CN3CCCC(F)C3)cc2)cc1OCc1c(Cl)cccc1Cl` (stereo partly drawn) [Example I-47, {4-[6-Amino-5-(2,6-dichloro-benzyloxy)-pyridin-3-yl]-phenyl}-[(2S)-2-(3-fluoro-piperidin-1-ylmethyl)-pyrrolidin-1-yl]-methanone], 0.42 µM. On to `Nc1ncc(-c2cccc(O)c2)cc1OCc1c(Cl)cccc1Cl` [Example I-15, 3-[6-Amino-5-(2,6-dichloro-benzyloxy)-pyridin-3-yl]-phenol], for which the IC50 was determined as 1.34 µM. Same read-out and setting: in the case of `CC(Oc1nc(-c2ccc(C(=O)N3CCN(C)CC3)cc2)cnc1N)c1c(F)ccc(F)c1Cl` (stereo not shown) [II-110, (4-{5-Amino-6-[1-(2-chloro-3,6-difluoro-phenyl)-ethoxy]-pyrazin-2-yl}-phenyl)-(4-methyl-piperazin-1-yl)-methanone] it was 0.16 µM; in that of `CC(Oc1nc(Br)cnc1N)c1c(Cl)ccc(F)c1Cl` (stereo not shown) [II(e), 5-Bromo-3-[1-(2,6-dichloro-3-fluoro-phenyl)-ethoxy]-pyrazin-2-ylamine], 0.24 µM and 0.66 µM and 1.3 µM. The same measure, in the same setting: in the case of `CC(=O)N1CCN(CCNC(=O)c2ccc(-c3cnc(N)c(OCc4c(F)ccc(F)c4Cl)n3)cc2)CC1` [II-37, N-[2-(4-Acetyl-piperazin-1-yl)-ethyl]-4-[5-amino-6-(2-chloro-3,6-difluoro-benzyloxy)-pyrazin-2-yl]-benzamide] it was 1.35 µM. Still for that read-out and setting: in the case of `Nc1ncc(-c2ccc(C(=O)N3CC[C@H](N)C3)cc2)cc1OCc1ccc(Cl)cc1Cl` [Example I-175, {4-[6-Amino-5-(2,4-dichloro-benzyloxy)-pyridin-3-yl]-phenyl}-[(3S)-3-amino-pyrrolidin-1-yl]-methanone] it was 1.2 µM. Take `CC(Oc1nc(-c2ccc(OCCN3CCOCC3)cc2)cnc1N)c1c(Cl)ccc(F)c1Cl` (stereo not shown) [II-71, 3-[1-(2,6-Dichloro-3-fluoro-phenyl)-ethoxy]-5-[4-(2-morpholin-4-yl-ethoxy)-phenyl]-pyrazin-2-ylamine; compound with trifluoro-acetic acid]: the IC50 came to 0.3 µM. The same measure, in the same setting: with `CS(=O)(=O)Nc1ccc(-c2cnc(N)c(OCc3ccccc3C(=O)NCCO)c2)cc1` [Example I-139, 2-[2-Amino-5-(4-methanesulfonylamino-phenyl)-pyridin-3-yloxymethyl]-N-(2-hydroxy-ethyl)-benzamide] the figure was above 20 µM.

As for `Nc1ncc(-c2ccc(O)cc2)cc1OCc1c(F)cccc1F` [Example I-118, 4-[6-Amino-5-(2,6-difluoro-benzyloxy)-pyridin-3-yl]-phenyl], the IC50 is 3.79 µM. Turning to `CS(=O)(=O)Nc1ccc(-c2cnc(N)c(OCc3ccccc3C(=O)O)c2)cc1` [Example I-137, 2-[2-Amino-5-(4-methanesulfonylamino-phenyl)-pyridin-3-yloxymethyl]-benzoic acid], the IC50 was above 20 µM. The same measure, in the same setting: with `Nc1ncc(-c2cccc(C(=O)N3CCC(N4CCCC4)CC3)c2)nc1OCc1cccc(F)c1C(F)(F)F` [II-122, {3-[5-Amino-6-(3-fluoro-2-trifluoromethyl-benzyloxy):pyrazin-2-yl]-phenyl)(4-pyrrolidin-1-yl-piperidin-1-yl)-methanone] the figure was 0.19 µM; with `Nc1ncc(-c2ccc(O)cc2)cc1OCc1ccc(F)cc1Cl` [Example I-129, 4-[6-Amino-5-(2-chloro-4-fluoro-benzyloxy)-pyridin-3-yl]-phenol], 19 µM.

For `CC(Oc1nc(-c2cccc(C(=O)N3CCC(N4CCCC4)CC3)c2)cnc1N)c1c(Cl)ccc(F)c1Cl` (stereo not shown) [II-92, (3-{5-Amino-6-[1-(2,6-dichloro-3-fluoro-phenyl)-ethoxy]-pyrazin-2-yl}-phenyl)-(4-pyrrolidin-1-yl-piperidin-1-yl)-methanone], the IC50 was 0.15 µM. Still for that read-out and setting: in the case of `CCN(CC)CCNC(=O)c1ccc(-c2cnc(N)c(OCc3c(Cl)cccc3Cl)c2)cc1` [Example I-36, 4-[6-Amino-5-(2,6-dichloro-benzyloxy)-pyridin-3-yl]-N-(2-diethylamino-ethyl)-benzamide] it was 0.99 µM.

(Values after patent publication US20050009840A1 (SUGEN, INC., priority 2003, published 2005).)
